Data from patent US11512111B2, “Yeats inhibitors and methods of use thereof” (The University of Hong Kong, priority 2017, dated 2022).

Key:
[1] = system: c-Myc expression; assay: JQ1-induced decrease of c-Myc expression, qPCR; assay type: cell-based; conditions: MOLM13 (FLAG-ENL), 50 μM, 24 hours then another 24 hours
Description: (§1) FIG. 49A is a graph showing the effect of treatment of MOLM13 cells with compound 39 (XL-13m) on the sensitivity of JQ1-induced decrease in c-Myc expression. Expression of c-Myc was quantified by qPCR. P value by student's t-test. Mean±s.d., three biological replicates. FIG. 49B is a graph showing the effect of treatment of MOLM13 cells with compound 39 (XL-13m) on enrichment of ENL on indicated genes. […] P value by student's t-test. Mean±s.d., triplicate PCR analysis.
(§2) MOLM13 (FLAG-ENL) cells were cultured with or without 50 μM compound XL-13m. Every 2-3 days, live cells were counted by trypan blue exclusion assay and re-plated. […] MOLM13 (FLAG-ENL) cells were cultured with or without 50 μM compound XL-13m for 24 hours, and the cells were treated with 50 μM for another 24 hours. […] Expression of c-Myc was quantified by qPCR.

[2] = molecular target: T1, ENL (Homo sapiens, UniProt Q03111); assay: Cellular thermal shift assay (CETSA) in MOLM-13 (FLAG-ENL) cells; assay type: cell-based; conditions: MOLM13 (FLAG-ENL), 50 μM, 16 hours, anti-FLAG
T1 construct: expressed in transfected cells; host or cells: MOLM-13 (FLAG-ENL) cells
T1 sequence (Q03111 1-559): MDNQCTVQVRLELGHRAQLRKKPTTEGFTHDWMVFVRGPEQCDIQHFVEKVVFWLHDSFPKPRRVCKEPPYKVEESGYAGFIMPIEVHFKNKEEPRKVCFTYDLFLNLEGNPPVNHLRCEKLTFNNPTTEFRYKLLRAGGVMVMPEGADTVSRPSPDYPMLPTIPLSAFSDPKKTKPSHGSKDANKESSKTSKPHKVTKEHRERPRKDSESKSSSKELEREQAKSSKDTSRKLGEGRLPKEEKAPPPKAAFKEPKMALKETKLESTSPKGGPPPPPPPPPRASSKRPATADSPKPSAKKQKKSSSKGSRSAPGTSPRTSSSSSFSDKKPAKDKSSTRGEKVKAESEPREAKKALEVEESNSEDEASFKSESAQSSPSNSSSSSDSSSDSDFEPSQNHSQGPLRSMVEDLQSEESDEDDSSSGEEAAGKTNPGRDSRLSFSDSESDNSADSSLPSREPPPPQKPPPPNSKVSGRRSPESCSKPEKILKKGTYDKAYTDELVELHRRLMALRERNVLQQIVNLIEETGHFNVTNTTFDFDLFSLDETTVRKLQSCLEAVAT
Experimental: We next applied the cellular thermal shift assay (CETSA) to examine if XL-13m was cell permeable and could target ENL in living cells. MOLM-13 (FLAG-ENL) were treated with XL-13m for […] and then heated at different temperature to denature and precipitate proteins. […] Soluble proteins were extracted by freeze-thaw cycle and subjected to western blotting analysis.
(§3) MOLM13 (FLAG-ENL) cells were incubated with or without 50 μM compound for 16 hours and then were collected for cellular thermal shift assay (CETSA) as previously reported. Anti-FLAG antibody was used to detect ENL proteins and γ-actin blotting served as negative control.

[3] = molecular target: T2, ENL YEATS domain (Homo sapiens, UniProt Q03111); assay: Photo-cross-linking-based competition assay; assay type: binding; conditions: competition with photoaffinity probe, in-gel fluorescence
T2 construct: His-SUMO-ENL (1-138); His (N); SUMO (N); made in house; host or cells: E. coli Rosetta
T2 sequence (Q03111 1-138): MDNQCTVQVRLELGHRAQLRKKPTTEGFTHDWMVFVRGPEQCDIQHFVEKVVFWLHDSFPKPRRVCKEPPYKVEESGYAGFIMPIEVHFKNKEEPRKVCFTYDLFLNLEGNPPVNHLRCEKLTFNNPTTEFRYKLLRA

[4] = molecular target: T1, ENL; assay: ChIP-qPCR of ENL enrichment on genes in MOLM13 (FLAG-ENL) cells; assay type: cell-based; conditions: 50 μM, 72 hours
Description: as §1
as §3, with “MOLM13 (FLAG-ENL) cells were cultured with or without 50 μM compound XL-13m for 72 hours. […] MOLM13” for “MOLM13”

[5] = molecular target: T3, AF9 YEATS domain (Homo sapiens, UniProt P42568); assay: Photo-cross-linking-based competition assay (photoaffinity probe, click chemistry, in-gel fluorescence); assay type: binding; conditions: ratio of IC50 values
T3 construct: His-AF9 (1-138); His (N); made in house; host or cells: E. coli Rosetta
T3 sequence (P42568 1-138): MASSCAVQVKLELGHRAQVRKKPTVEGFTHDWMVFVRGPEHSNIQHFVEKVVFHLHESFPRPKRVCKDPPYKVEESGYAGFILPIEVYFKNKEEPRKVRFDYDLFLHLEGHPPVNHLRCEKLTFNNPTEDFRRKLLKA
Experimental: Mobile phase used were water with 0.1% trifluoroacetic acid (buffer A) and 90% acetonitrile in water with 0.1% trifluoroacetic acid (buffer B). The purity (>95%) and identity of peptides were confirmed by LC-MS. The inhibitory activities of the inhibitors were determined by a photo-cross-linking-based competition assay. […] The reactions were incubated for 1 h at r.t . . . . The reactions were quenched by adding 5 volumes of ice-cold acetone and placed at −20° C. overnight to precipitate proteins. After protein precipitation, samples were centrifuged at 6000×g for 5 min at 4° C. The supernatant was discarded and the pellet was washed with ice-cooled methanol twice and air-dried for 10 min. […] Samples were then resolved by SDS-PAGE. The labeled proteins were visualized by scanning the gel on a Typhoon 9410 variable mode imager (excitation 532 nm, emission filter 580 nm). A photo-cross-linking based method was used in this study to estimate inhibitory activity (FIG. 28). This method requires the use of a photoaffinity probe. The probe (probe 1 (SEQ ID NO:48), see below) is derived from a crotonylated peptide, ligand of the protein, carrying a photo-cross-linker and a terminal alkyne as bioorthogonal. The YEATS domain is incubated and bound to the probe through Kcr-dependent recognition. Upon UV-irradiation, the photo-cross-linker is activated and rapidly cross-linked to the protein, converting the non-covalent protein-probe interaction into a covalent linkage. The probe-labeled protein is subsequently conjugated to an azide-functionalized fluorescence dye (for example, rhodamine-N3, Rho-N3) via Cu(I)-catalyzed azide-alkyne cycloaddition (CuAAC, or “click” chemistry). After SDS-PAGE, the protein can be visualized by in-gel fluorescence scanning. If photo-cross-linking of the YEATS domain with photoaffinity probe is performed in the presence of an inhibitor, which occupies the Kcr binding pocket of the YEATS domain and thus inhibits the protein-probe interaction, the percentage of the YEATS domain in the sample that is labeled by the probe will be reduced. The in-gel fluorescence intensity detected will also be decreased. By varying the concentration of inhibitor added in the sample and quantifying the resulting fluorescence intensities, a competition curve of the inhibitor toward the protein-probe interaction will be obtained, which can be used to estimate the IC50 value. Due to the covalent nature of photo-cross-linking, weak protein-protein interactions can be captured and eventually visualized. The protein concentration used in the assay can be as low as several nanograms per microliter, while the fluorescence signal can still be robustly detected and quantified.

[6] = system: MOLM13 (FLAG-ENL) cells; assay: Cell proliferation, trypan blue exclusion count; assay type: cell-based; conditions: 50 μM, live cells counted every 2-3 days
Experimental: as §2

CC(=O)N[C@@H](C)C(=O)N[C@@H](CCCNC(=N)N)C(=O)N[C@@H](CCCCNC(=O)c1cnco1)C(N)=O [Compound 39]
sensitivity of JQ1-induced decrease of c-Myc expression [1]: increased the sensitivity | thermal shift: targeting of ENL protein in living cells [2]: revealed the target of ENL protein | IC50 [3]: 560 nM | enrichment of ENL on indicated genes [4]: decrease of the enrichment of ENL | activity on AF9 weaker than on ENL [5]: 4.5 fold | effect on cell proliferation [6]: affected cell proliferation
